The record followed here is US10604514B2, “6-(5-membered heteroaryl)isoquinolin-3-yl carboxamides and preparation and use thereof” (Samumed, LLC, priority 2017, dated 2020).

Where two headings read alike, the source gives them in different places.

For experiment [1], the system named is Wnt activity (Sp5-Luc reporter in SW480 colon carcinoma cells). In words: Wnt activity screening assay (Sp5-Luc reporter gene assay). It counts as cell-based, human. Conditions: Homo sapiens; for inhibition at 10 µM: SW480, read-out: percent inhibition at 10 μM; for EC50: Sp5-Luc reporter, SW480 cells, 36 to 48 hours. The gist of the method: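 Compounds at 10 points (1:3 steps, top 10 μM, 0.1% DMSO final) were incubated 36 to 48 h at 37° C with stable Sp5-Luc SW480 reporter cells in 1% FBS medium. Luciferase luminescence was then read and expressed relative to DMSO-only cells. Four-parameter variable-slope fitting yielded EC50 values.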
In general terms: Reporter assays use an easily measured gene product as a stand-in for the process of interest.

A further experiment deals with GSK3β kinase (Homo sapiens (Human), UniProt P49841). As to the kind of experiment: GSK3β kinase assay (Ser/Thr 09 peptide Z-lyte, FRET).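 Also: Coumarin/fluorescein emission ratio converted to percent phosphorylation against unphosphorylated (0%) and phosphorylated (100%) controls, 1 h compound incubation at room temperature, 11-point threefold dilutions from 10 µM, run in duplicate.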 It counts as biochemical. The following applies: method text calls the value IC50.
The subject of experiment [2] is Tau phosphorylation at Ser396 (pSer396), SH-SY5Y cells. As to the kind of experiment: Tau phosphorylation at Ser396 (pSer396) in SH-SY5Y cells, ELISA/western blot.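 Also: cell lysates probed for reduced Tau pSer396 via ELISA (colorimetric) or western blot (chemiluminescence), both with one shared pSer396 antibody, EC50 for lowering phosphorylation.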 It counts as cell-based, human. Conditions: Homo sapiens; SH-SY5Y cells, overnight (16-18 h); read-out: pSer396 Tau EC50.
Description: Two days before treatment, cells were seeded onto 96 well plates at 5×10^4 cells/well.
Wells were visually checked for cell death or change in morphology and supernatants were tested for cytotoxicity by measurement of lactate dehydrogenase release (LDH, CytoToxOne kit, Promega) if necessary.
Cells were lysed with RIPA buffer complemented with phosphatase and protease inhibitors then lysates were spun down at 12,000 g for 10 min to remove any cellular debris. Lysates are then either directly tested for pSer396 by ELISA (Life Technology, Kit KHB7031) or loaded on NuPage Bis-Tris gels for western blot analysis. Colorimetric detection of ELISA signal is performed by Cytation3 plate reader (Biotek) and the chemiluminescence signal for HRP-linked antibodies used in western blotting is detected using a Carestream Image Station. The same pSer396 antibody is used for detection of pTau in both assays.
The test system of experiment [3] is SW480 colon carcinoma cells. As to the kind of experiment: Cell viability assay (CellTiter-Glo) in SW480 cells.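 As to all read-outs here: SW480 cells stably carrying an Sp5-luciferase TCF/LEF reporter, luminescent ATP signal as viability measure, DMSO-treated cells as control.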 It counts as cell-based, human. The following applies: Homo sapiens; for EC50: 96 h, cell viability, SW480 cells, four days, CellTiter-Glo; for inhibition at 10 µM: SW480, read-out: percent inhibition at 10 μM.
The subject of experiment [4] is LL29 cells (primary human fibroblasts derived from IPF patients), α-smooth muscle actin. In words: Inhibition of fibrotic process: αSMA in TGF-β1-treated primary human fibroblasts from IPF patients (LL29 cells). It counts as cell-based. Conditions: Homo sapiens, Fibroblast; for EC50: 96 h, % αSMA-positive LL29 cells, TGF-β1 20 ng/mL, 4 days. The gist of the method: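 Read-out is the percentage of αSMA-positive cells by high-content imaging, excluding SYTOX green-positive dead/apoptotic cells, normalized to TGF-β1-only wells on the same plate. LL29 cells were exposed for 4 days at 37 °C to 20 ng/mL TGF-β1 plus 11-point, 2-fold compound dilutions in 0.1% DMSO.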

The test system of the next experiment is IL-6. As to the kind of experiment: IL-6 inhibition in LPS-stimulated human peripheral blood mononuclear cells (HTRF). It counts as cell-based. The following applies: Homo sapiens, PBMC; for EC50: IL-6, LPS-stimulated huPBMCs, HTRF. Summed up: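 EC50 from a 4-parameter fit of DMSO-normalized HTRF (665/620 nm) IL-6 signal, duplicates. Compound was added to fresh human PBMCs in 1% FBS RPMI for 2 h (top 10 μM, 3-fold, 0.25% DMSO) before 22 h stimulation with LPS at 50 ng/mL, 37 °C.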

The next experiment addresses DYRK1A kinase (Homo sapiens (Human), UniProt Q13627). In words: DYRK1A kinase assay (Ser/Thr 18 peptide Z-lyte, FRET).
Setting [5] is: DYRK1A kinase, method text calls the value IC50.

Chain of GSK3β kinase (P49841 whole entry): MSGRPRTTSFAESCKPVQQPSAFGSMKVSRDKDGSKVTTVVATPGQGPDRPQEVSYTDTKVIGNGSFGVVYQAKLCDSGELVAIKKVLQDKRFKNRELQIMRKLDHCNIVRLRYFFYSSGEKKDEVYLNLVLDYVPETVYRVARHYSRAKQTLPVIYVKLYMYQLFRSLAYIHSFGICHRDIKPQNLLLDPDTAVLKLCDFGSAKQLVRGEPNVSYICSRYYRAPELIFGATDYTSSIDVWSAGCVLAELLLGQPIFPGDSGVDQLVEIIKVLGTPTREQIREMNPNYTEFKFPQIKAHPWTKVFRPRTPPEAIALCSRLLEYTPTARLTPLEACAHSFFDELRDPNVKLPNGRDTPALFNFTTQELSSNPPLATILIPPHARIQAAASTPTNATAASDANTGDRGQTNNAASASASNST

The term EC50 denotes the concentration at which the effect is half-maximal. With `Cc1ncc(-c2cc(F)c3cnc(NC(=O)[C@H]4CC[C@H](C(=O)N5CCN(C)CC5)CC4)cc3c2)o1` [Compound 101, trans-N-(8-fluoro-6-(2-methyloxazol-5-yl)isoquinolin-3-yl)-4-(4-methylpiperazine-1-carbonyl)cyclohexane-1-carboxamide], the inhibition at 10 µM in experiment [1] stood at 6.3%; in experiment [3], 18.8%. The EC50 is > 10000 nM in experiment [1]; 1030 nM on GSK3β kinase; 5400 nM in experiment [2]; > 10000 nM in experiment [3]; 3070 nM in experiment [4]; 3590 nM with IL-6. Moreover, at DYRK1A kinase (setting [5]), a half-maximal response (EC50) required 22 nM.
`COC1CCN(CC(=O)Nc2cc3cc(-c4cn(C)nn4)ccc3cn2)CC1` [Compound 54, 2-(4-Methoxypiperidin-1-yl)-N-(6-(1-methyl-1H-1,2,3-triazol-4-yl)isoquinolin-3-yl)acetamide]: the EC50 in experiment [1] came to 943 nM; on GSK3β kinase, 6 nM; in experiment [2] it was 97 nM; in experiment [3], 3210 nM; in experiment [4], 412 nM; in the experiment with IL-6, 9630 nM. This compound returned an EC50 on DYRK1A kinase (setting [5]) of 7 nM.
In the case of `Cc1ncc(-c2cc3cc(NC(=O)[C@H]4CC[C@H](N(C)C)CC4)ncc3cc2F)o1` [Compound 18, trans-4-(Dimethylamino)-N-(7-fluoro-6-(2-methyloxazol-5-yl)isoquinolin-3-yl)cyclohexane-1-carboxamide], the EC50 in experiment [1] was found to be 671 nM; on GSK3β kinase, 68 nM; in experiment [2] it was 186 nM; in experiment [3], 587 nM; in experiment [4], 149 nM; with IL-6, 1250 nM. The EC50 on DYRK1A kinase (setting [5]) worked out at 3 nM.
Turning to `Cc1ncc(-c2ccc3cnc(NC(=O)[C@H]4CC[C@H](N(C)CC(F)F)CC4)cc3c2)o1` [Compound 44, trans-4-((2,2-Difluoroethyl)(methyl)amino)-N-(6-(2-methyloxazol-5-yl)isoquinolin-3-yl)cyclohexane-1-carboxamide], the EC50 was found to be 799 nM in experiment [1]; 65 nM on GSK3β kinase; 445 nM in experiment [2]; 2800 nM in experiment [3]; 247 nM in experiment [4]; 1130 nM with IL-6. This compound also gave an EC50 on DYRK1A kinase (setting [5]) of 5 nM.
On to `[2H]c1c([2H])c([2H])c(/C=C/C(=O)Nc2cc3cc(-c4cncn4C)ccc3cn2)c([2H])c1[2H]` [Compound 93, (E)-N-(6-(1-methyl-1H-imidazol-5-yl)isoquinolin-3-yl)-3-(phenyl-2,3,4,5,6-d5)acrylamide], for which the EC50 in experiment [1] was determined as 67 nM; on GSK3β kinase, 238 nM; in experiment [2], 259 nM; in experiment [3], 98 nM; in experiment [4], 145 nM; in the experiment on IL-6, 280 nM. Moreover, on DYRK1A kinase, the midpoint of the response, the EC50, lay at 2 nM.
On to `Cc1ncc(-c2ccc3cnc(NC(=O)[C@H]4CC[C@H](NC(CF)CF)CC4)cc3c2)o1` [Compound 124, trans-4-((1,3-difluoropropan-2-yl)amino)-N-(6-(2-methyloxazol-5-yl)isoquinolin-3-yl)cyclohexane-1-carboxamide], for which the EC50 in experiment [1] is 3480 nM; on GSK3β kinase, 217 nM; in experiment [2], 612 nM; in experiment [3], 1020 nM; in experiment [4] it was 451 nM; in the experiment with IL-6 it was 1880 nM. The same compound came in with an EC50 on DYRK1A kinase (setting [5]) of 35 nM.
Turning to `Cc1ncc(-c2ccc3cnc(NC(=O)[C@H]4CC[C@H](N(C)C5COC5)CC4)cc3c2)o1` [Compound 37, trans-4-(methyl(oxetan-3-yl)amino)-N-(6-(2-methyloxazol-5-yl)isoquinolin-3-yl)cyclohexane-1-carboxamide], the half-maximal effective concentration (EC50) in experiment [1] stood at 4040 nM; at GSK3β kinase, 138 nM; in experiment [2] it was 497 nM; in experiment [3], 6890 nM; in experiment [4] it was 244 nM; in the experiment with IL-6, 1340 nM. Besides, the EC50 on DYRK1A kinase (setting [5]) turned out to be 7 nM.
Take `Cc1nnc(-c2ccc3cnc(NC(=O)[C@H]4CC[C@H](N5CCOCC5)CC4)cc3c2)s1` [Compound 23, trans-N-(6-(5-Methyl-1,3,4-thiadiazol-2-yl)isoquinolin-3-yl)-4-morpholinocyclohexane-1-carboxamide]: the EC50 was determined as 725 nM in experiment [1]; 17 nM at GSK3β kinase; 161 nM in experiment [2]; 2120 nM in experiment [3]; 489 nM in experiment [4]; 9370 nM in the experiment with IL-6. This compound also came in with an EC50 on DYRK1A kinase (setting [5]) of 4 nM.
Regarding `CN1CCN(C(=O)[C@H]2CC[C@H](C(=O)Nc3cc4cc(-c5cnn(C)c5)cc(F)c4cn3)CC2)CC1` [Compound 102, trans-N-(8-Fluoro-6-(1-methyl-1H-pyrazol-4-yl)isoquinolin-3-yl)-4-(4-methylpiperazine-1-carbonyl)cyclohexane-1-carboxamide], the EC50 was found to be 3250 nM in experiment [1]; 434 nM at GSK3β kinase; 2600 nM in experiment [2]; 3030 nM in experiment [3]; 2400 nM in experiment [4]; 2920 nM with IL-6. Besides, the midpoint of the response on DYRK1A kinase (setting [5]), the EC50, lay at 5 nM.
Take `Cn1cc(-c2cc(F)c3cnc(NC(=O)[C@H]4CC[C@@H](N(C)C)CC4)cc3c2)cn1` [Compound 96, cis-4-(Dimethylamino)-N-(8-fluoro-6-(1-methyl-1H-pyrazol-4-yl)isoquinolin-3-yl)cyclohexane-1-carboxamide]: the inhibition at 10 µM in experiment [1] worked out at 0%; in experiment [3], 2.3%; in experiment [4] (read-out: percent inhibition at 10 μM) it was 36%; with IL-6 (read-out: percent value in parentheses below EC50 >10), 3.6%. The EC50 in experiment [1] was > 10000 nM; at GSK3β kinase, 5420 nM; in experiment [2], > 10000 nM; in experiment [3], > 10000 nM; in experiment [4], > 10000 nM; with IL-6 it was > 10000 nM. The compound further registered an EC50 on DYRK1A kinase (setting [5]) of 846 nM.
On to `[2H]c1c([2H])c(C([2H])([2H])[2H])c([2H])c([2H])c1C(=O)Nc1cc2cc(-c3cncn3C)ccc2cn1` [Compound 86, 4-(Methyl-d3)-N-(6-(1-methyl-1H-imidazol-5-yl)isoquinolin-3-yl) benzamide-2,3,5,6-d4], for which the EC50 is 350 nM in experiment [1]; 1740 nM at GSK3β kinase; 3040 nM in experiment [2]; 515 nM in experiment [3]; 556 nM in experiment [4]; 2170 nM in the experiment with IL-6. The same compound returned an EC50 on DYRK1A kinase of 2 nM.
On to `COC1CCN(CC(=O)Nc2cc3cc(-c4cnc(C)o4)ccc3cn2)CC1` [Compound 48, 2-(4-Methoxypiperidin-1-yl)-N-(6-(2-methyloxazol-5-yl)isoquinolin-3-yl) acetamide], for which the EC50 in experiment [1] stood at 820 nM; on GSK3β kinase, 54 nM; in experiment [2], 359 nM; in experiment [3], 3890 nM; in experiment [4], 718 nM; with IL-6 it was 9070 nM. The same compound yielded an EC50 at DYRK1A kinase (setting [5]) of 20 nM.
